The results in this text go back to patent publication EP4603105A1, “PHARMACEUTICAL COMPOSITION CONTAINING CYCLIC COMPOUND HAVING SELECTIVE KRAS INHIBITORY EFFECT AGAINST HRAS AND NRAS” (CHUGAI SEIYAKU KABUSHIKI KAISHA, priority 2022, dated 2024).

For one assay, the target named is HRAS wild-type protein (Homo sapiens, UniProt P01112). Nature of the assay: Binding to HRAS by surface plasmon resonance (SPR), KD and KD ratio to KRAS. The conditions noted are these: ratio of the KD value with respect to HRAS wild-type protein to the KD value with respect to KRAS. The method, boiled down:
(§1)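 Measured at 30°C: SPR with GDP-loaded, E. coli-expressed biotin-Avi RAS captured (~100–300 RU), ascending 75 s compound injections, HBS pH 7.4 with GDP, MgCl2, 4% DMSO. KD from 1:1 fit.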

In assay [1] the target is GDP-bound KRAS wild-type protein (Homo sapiens, UniProt P01116). Nature of the assay: Binding to KRAS by surface plasmon resonance (SPR), dissociation constant KD. The conditions noted are these: Single Cycle Kinetics, 1:1 binding model. In outline:
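Recombinant RAS proteins bearing a biotinylated Avi tag and loaded with GDP served as the captured ligand, recaptured fresh every cycle. Binding responses were referenced to an uncoated surface and a buffer-only blank cycle. Dissociation constants were obtained by 1:1 model fitting at 30°C.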

In assay [2] the test system is human lung cancer strain NCI-H441. The format is cell-based. In outline:
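Signal came from […] measured per well once the reagent was added. Beforehand, cells were cultured at 37°C and 5% carbon dioxide on a compound series serially diluted in dimethyl sulfoxide.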

Assay [3] deals with GDP-bound NRAS wild-type protein (Homo sapiens, UniProt P01111). Nature of the assay: Binding to NRAS by surface plasmon resonance (SPR), KD and KD ratio to KRAS. Particulars: ratio of the KD value with respect to GDP-bound NRAS wild-type protein to the KD value with respect to KRAS. In outline: as §1
Sequence of GDP-bound NRAS wild-type protein (P01111 whole entry): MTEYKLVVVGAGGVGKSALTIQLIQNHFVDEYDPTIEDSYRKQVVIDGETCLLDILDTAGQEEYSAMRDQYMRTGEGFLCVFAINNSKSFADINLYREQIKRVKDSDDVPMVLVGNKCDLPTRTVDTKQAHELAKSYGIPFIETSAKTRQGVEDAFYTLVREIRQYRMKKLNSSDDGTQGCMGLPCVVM

Sequence of GDP-bound KRAS wild-type protein (P01116 1-188 isoform P01116-2): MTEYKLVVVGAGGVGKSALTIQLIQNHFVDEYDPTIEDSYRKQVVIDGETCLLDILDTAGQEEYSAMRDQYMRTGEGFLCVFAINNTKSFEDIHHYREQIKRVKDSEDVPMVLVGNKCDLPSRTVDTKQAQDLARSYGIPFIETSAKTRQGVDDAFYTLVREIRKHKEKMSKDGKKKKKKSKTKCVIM
Sequence of HRAS wild-type protein (P01112 whole entry): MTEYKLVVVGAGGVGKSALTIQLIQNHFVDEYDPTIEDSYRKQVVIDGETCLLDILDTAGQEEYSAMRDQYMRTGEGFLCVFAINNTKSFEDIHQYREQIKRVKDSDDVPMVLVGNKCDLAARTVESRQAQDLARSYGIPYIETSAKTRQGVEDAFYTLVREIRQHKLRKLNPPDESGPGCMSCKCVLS

Regarding `CCC[C@@H]1C[C@H]2C(=O)NC3(CCCC3)C(=O)N(C)[C@@H](C3CCCC3)C(=O)N(C)[C@H](C(=O)N(C)C)CC(=O)N(C)[C@@H](CC(C)C)C(=O)N[C@@H]([C@@H](C)CC)C(=O)N(C)CC(=O)N(C)[C@H]3C/C=C\CCN(C3=O)[C@@H](Cc3ccc(C)cc3)C(=O)N(C)CC(=O)N[C@@H](CCc3cc(F)c(C(F)(F)F)c(F)c3)C(=O)N2C1` [PP2193], the “HRAS /KRAS” value at HRAS wild-type protein is “A (a compound having 10 or more and less than 20 is denoted as A)”. In assay [1], this compound registered a Kd of 0.41 nM. Half-maximal inhibition in assay [2] (IC50) required 33.1 nM. Moreover, the “NRAS /KRAS” value in assay [3] was “A (a compound having 10 or more and less than 20 is denoted as A)”.
Regarding `CCC[C@H]1C(=O)N[C@@H](C(CC)CC)C(=O)N(C)CC(=O)N(C)[C@H]2C/C=C\CCN(C2=O)[C@@H](Cc2ccc(C)cc2)C(=O)N(C)CC(=O)N[C@@H](CCc2ccc(C(F)(F)F)c(Cl)c2)C(=O)N2C[C@H](OCC)C[C@H]2C(=O)NC2(CC(C)(C)C2)C(=O)N(C)[C@@H](CC(C)C)C(=O)N(C)[C@H](C(=O)N(C)C)CC(=O)N1C` [PP2202], the “HRAS /KRAS” value at HRAS wild-type protein was “A (a compound having 10 or more and less than 20 is denoted as A)”. For the same compound, the Kd in assay [1] was found to be 4.9 nM. Moreover, the IC50 in assay [2] stood at 94.7 nM. In addition, in assay [3], the “NRAS /KRAS” value was “A (a compound having 10 or more and less than 20 is denoted as A)”.
Consider `CCCOC[C@H]1C(=O)N[C@@H]([C@@H](C)CC)C(=O)N(C)CC(=O)N(C)[C@H]2C/C=C\CCN(C2=O)[C@@H](Cc2ccc(C)cc2)C(=O)N(C)CC(=O)N[C@@H](CCc2cc(F)c(C(F)(F)F)c(F)c2)C(=O)N2C[C@H](CCC)C[C@H]2C(=O)NC2(CC(C)(C)C2)C(=O)N(C)[C@@H](C2CCCC2)C(=O)N(C)[C@H](C(=O)N(C)C)CC(=O)N1C` [PP2203], for which the “HRAS /KRAS” value on HRAS wild-type protein is “A (a compound having 10 or more and less than 20 is denoted as A)”. The Kd in assay [1] amounted to 0.34 nM. In assay [2], this compound had an IC50 of 20.5 nM. In assay [3], the “NRAS /KRAS” value was “A (a compound having 10 or more and less than 20 is denoted as A)”.
On to `CCC[C@H]1C(=O)N[C@@H]([C@@H](C)CC)C(=O)N(C)CC(=O)N(C)[C@H]2C/C=C\CCN(C2=O)[C@@H](Cc2ccc(C)cc2)C(=O)N(C)CC(=O)N[C@@H](CCc2ccc(C(F)(F)F)c(Cl)c2)C(=O)N2C[C@H](C)C[C@H]2C(=O)NC2(CC(C)(C)C2)C(=O)N(C)[C@@H](C2CCCC2)C(=O)N(C)[C@H](C(=O)N(C)C)CC(=O)N1C` [PP2210], for which the “HRAS /KRAS” value on HRAS wild-type protein was “B (a compound having 3 or more and less than 10 is denoted as B)”. This compound also registered a Kd in assay [1] of 0.13 nM. The IC50 in assay [2] is 6.2 nM. The “NRAS /KRAS” value in assay [3] is “A (a compound having 10 or more and less than 20 is denoted as A)”.
As for `CCC[C@@H]1C[C@H]2C(=O)NC3(CC(C)(C)C3)C(=O)N(C)[C@@H](C3CCCC3)C(=O)N(C)[C@H](C(=O)N(C)C)CC(=O)N(C)[C@@H](CCC)C(=O)N[C@@H]([C@@H](C)CC)C(=O)N(C)CC(=O)N(C)[C@H]3C/C=C\CCN(C3=O)[C@@H](Cc3ccc(C)cc3)C(=O)N(C)CC(=O)N[C@@H](CCc3ccc(C(F)(F)F)c(Cl)c3)C(=O)N2C1` [PP2214], the “HRAS /KRAS” value at HRAS wild-type protein was “A (a compound having 10 or more and less than 20 is denoted as A)”. The compound further came in with a Kd in assay [1] of 0.3 nM. Further, inhibition in assay [2] was half-maximal at 29.6 nM (IC50). Moreover, the “NRAS /KRAS” value in assay [3] was “A (a compound having 10 or more and less than 20 is denoted as A)”.
Consider `CCC[C@H]1C(=O)N[C@@H]([C@@H](C)CC)C(=O)N(C)CC(=O)N(C)[C@H]2C/C=C\CCN(C2=O)[C@@H](Cc2ccc(C)cc2)C(=O)N(C)CC(=O)N[C@@H](CCc2cc(F)c(C(F)(F)F)c(F)c2)C(=O)N2C[C@H](CC)C[C@H]2C(=O)NC2(CCCC2)C(=O)N(C)[C@@H](C2CCCC2)C(=O)N(C)[C@H](C(=O)N(C)C)CC(=O)N1C` [PP2216], for which the “HRAS /KRAS” value on HRAS wild-type protein is “A (a compound having 10 or more and less than 20 is denoted as A)”. Besides, in assay [1], the Kd was found to be 0.23 nM. Besides, the IC50 in assay [2] worked out at 50.8 nM. In addition, the “NRAS /KRAS” value in assay [3] is “A (a compound having 10 or more and less than 20 is denoted as A)”.
As for `CCCOC[C@H]1C(=O)N[C@@H]([C@@H](C)CC)C(=O)N(C)CC(=O)N(C)[C@H]2C/C=C\CCN(C2=O)[C@@H](Cc2ccc(C)cc2)C(=O)N(C)CC(=O)N[C@@H](CCc2cc(F)c(C(F)(F)F)c(F)c2)C(=O)N2C[C@H](CC)C[C@H]2C(=O)NC2(CCCC2)C(=O)N(C)[C@@H](C2CCCC2)C(=O)N(C)[C@H](C(=O)N(C)C)CC(=O)N1C` [PP2218], on HRAS wild-type protein, the “HRAS /KRAS” value is “A (a compound having 10 or more and less than 20 is denoted as A)”. This compound displayed a dissociation constant (Kd) in assay [1] of 0.29 nM. In assay [2], this compound came in with an IC50 of 24 nM. For the same compound, in assay [3], the “NRAS /KRAS” value was “A (a compound having 10 or more and less than 20 is denoted as A)”.
`CCC[C@H]1C(=O)N[C@@H]([C@H](C)CC)C(=O)N(C)CC(=O)N(C)[C@H]2C/C=C\CCN(C2=O)[C@@H](Cc2ccc(C)cc2)C(=O)N(C)CC(=O)N[C@@H](CCc2ccc(C(F)(F)F)c(Cl)c2)C(=O)N2C[C@H](OCC)C[C@H]2C(=O)NC2(CC(C)(C)C2)C(=O)N(C)[C@@H](CC(C)(C)C)C(=O)N(C)[C@H](C(=O)N(C)C)CC(=O)N1C` [PP2219]: the “HRAS /KRAS” value on HRAS wild-type protein was “A (a compound having 10 or more and less than 20 is denoted as A)”. In assay [1], this compound displayed a Kd of 1.6 nM. The same compound showed an IC50 in assay [2] of 50.9 nM. In assay [3], the “NRAS /KRAS” value was “A (a compound having 10 or more and less than 20 is denoted as A)”.
On to `CC[C@@H]1C[C@H]2C(=O)NC3(CCC3)C(=O)N(C)[C@@H](C3CCCC3)C(=O)N(C)[C@H](C(=O)N(C)C)CC(=O)N(C)[C@@H](CC(C)C)C(=O)N[C@@H]([C@@H](C)CC)C(=O)N(C)CC(=O)N(C)[C@H]3C/C=C\CCN(C3=O)[C@@H](Cc3ccc(C)cc3)C(=O)N(C)CC(=O)N[C@@H](CCc3cc(F)c(C(F)(F)F)c(F)c3)C(=O)N2C1` [PP2220], for which the “HRAS /KRAS” value at HRAS wild-type protein is “A (a compound having 10 or more and less than 20 is denoted as A)”. Binding in assay [1] was characterised by a dissociation constant (Kd) of 0.14 nM. In addition, in assay [2], the IC50 came to 32.1 nM. Besides, in assay [3], the “NRAS /KRAS” value was “A (a compound having 10 or more and less than 20 is denoted as A)”.
For the compound `CCC[C@H]1C(=O)N[C@@H]([C@H](C)CC)C(=O)N(C)CC(=O)N(C)[C@H]2C/C=C\CCN(C2=O)[C@@H](Cc2ccc(C)cc2)C(=O)N(C)CC(=O)N[C@@H](CCc2ccc(C(F)(F)F)c(Cl)c2)C(=O)N2C[C@H](OCC)C[C@H]2C(=O)NC2(CC(C)(C)C2)C(=O)N(C)[C@@H](C2CCCC2)C(=O)N(C)[C@H](C(=O)N(C)C)CC(=O)N1C` [PP2221], the “HRAS /KRAS” value on HRAS wild-type protein is “A (a compound having 10 or more and less than 20 is denoted as A)”. The affinity in assay [1], expressed as Kd, was 1.7 nM. The IC50 in assay [2] came to 40.5 nM. Moreover, the “NRAS /KRAS” value in assay [3] was “A (a compound having 10 or more and less than 20 is denoted as A)”.
In the case of `CC[C@H](C)[C@@H]1NC(=O)[C@H](CC(C)C)N(C)C(=O)C[C@@H](C(=O)N(C)C)N(C)C(=O)[C@H](C2CCCC2)N(C)C(=O)C2(CC(C)(C)C2)NC(=O)[C@@H]2C[C@@H](C)CN2C(=O)[C@H](CCc2cc(F)c(C(F)(F)F)c(F)c2)NC(=O)CN(C)C(=O)[C@H](Cc2ccc(C)cc2)N2CC/C=C\C[C@@H](C2=O)N(C)C(=O)CN(C)C1=O` [PP2223], at HRAS wild-type protein, the “HRAS /KRAS” value is “A (a compound having 10 or more and less than 20 is denoted as A)”. In assay [1], this compound gave a Kd of 0.1 nM. Half-maximal inhibition in assay [2] (IC50) required 5.3 nM. Also, the “NRAS /KRAS” value in assay [3] is “A (a compound having 10 or more and less than 20 is denoted as A)”.
Regarding `CCCOC[C@H]1C(=O)N[C@@H]([C@@H](C)CC)C(=O)N(C)CC(=O)N(C)[C@H]2C/C=C\CCN(C2=O)[C@@H](Cc2ccc(C)cc2)C(=O)N(C)CC(=O)N[C@@H](CCc2cc(F)c(C(F)(F)F)c(F)c2)C(=O)N2C[C@H](C)C[C@H]2C(=O)NC2(CCCC2)C(=O)N(C)[C@@H](C2CCCC2)C(=O)N(C)[C@H](C(=O)N(C)C)CC(=O)N1C` [PP2225], the “HRAS /KRAS” value on HRAS wild-type protein was “A (a compound having 10 or more and less than 20 is denoted as A)”. The dissociation constant Kd in assay [1] was 0.2 nM. The IC50 in assay [2] stood at 41.4 nM. Besides, the “NRAS /KRAS” value in assay [3] was “A (a compound having 10 or more and less than 20 is denoted as A)”.
Turning to `CCC[C@@H]1C[C@H]2C(=O)NC3(CCCC3)C(=O)N(C)[C@@H](C3CCCC3)C(=O)N(C)[C@H](C(=O)N(C)C)CC(=O)N(C)[C@@H](CC)C(=O)N[C@@H]([C@@H](C)CC)C(=O)N(C)CC(=O)N(C)[C@H]3C/C=C\CCN(C3=O)[C@@H](Cc3ccc(C)cc3)C(=O)N(C)CC(=O)N[C@@H](CCc3cc(F)c(C(F)(F)F)c(F)c3)C(=O)N2C1` [PP2227], the “HRAS /KRAS” value on HRAS wild-type protein was “A (a compound having 10 or more and less than 20 is denoted as A)”. Moreover, binding in assay [1] was put at a Kd of 0.27 nM. The same compound had an IC50 in assay [2] of 50.3 nM. In addition, the “NRAS /KRAS” value in assay [3] is “A (a compound having 10 or more and less than 20 is denoted as A)”.
`CCCOC[C@H]1C(=O)N[C@@H]([C@@H](C)CC)C(=O)N(C)CC(=O)N(C)[C@H]2C/C=C\CCN(C2=O)[C@@H](Cc2ccc(C)cc2)C(=O)N(C)CC(=O)N[C@@H](CCc2cc(F)c(C(F)(F)F)c(F)c2)C(=O)N2C[C@H](CCC)C[C@H]2C(=O)NC2(CCC2)C(=O)N(C)[C@@H](C2CCCC2)C(=O)N(C)[C@H](C(=O)N(C)C)CC(=O)N1C` [PP2232]: at HRAS wild-type protein, the “HRAS /KRAS” value is “A (a compound having 10 or more and less than 20 is denoted as A)”. The compound also showed a Kd in assay [1] of 0.22 nM. This compound had an IC50 in assay [2] of 18.7 nM. Further, the “NRAS /KRAS” value in assay [3] was “A (a compound having 10 or more and less than 20 is denoted as A)”.
